Source: patent US6540999B1, “Immunomodulatory methods using Lewisx oligosacchardies” (President and Fellows of Harvard College, priority 1996, dated 2003)

Assays:
IgE response [1] = test: Serum IgE titers after intranasal administration, HSA as antigen; type: in vivo; details: coadministration with HSA, mice, FIG. 4A
IgE response [2] = system: IgE response; design: species or system mice; details: mouse, in vivo
IgE response [3] = system: IgE response; design: species or system mice; details: mouse, in vivo; remark: listed apart in the source
[4] = system: naive splenocytes, T cell, B cell and non-T, non-B spleen cell populations; test: IFN-γ production in vitro by spleen cell subpopulations; type: cell-based, CBA mice; design: unit not given here
Text: (§1) In this example, the types of cells responsive to the multimeric sugar conjugates, and the types of cytokines produced, either in vitro or in vivo, were investigated further. For the in vitro studies, naive splenocytes were isolated from CBA mice and fractionated into T cell, B cell and non-T, non-B spleen cell populations. B cell populations were defined by expression of the B220 surface marker (i.e., B220^+ cells). T cell populations were defined by expression of CD5 or Thy surface markers (i.e., CD5^+ or Thy+).

[5] = system: naive splenocytes, T cell, B cell and non-T, non-B spleen cell populations; test: IL-10 production in vitro by spleen cell subpopulations; type: cell-based, CBA mice; design: unit not given here
Text: as §1

Granuloma macrophages = type: cell-based, C57BL/6 mice
Human PBMCs [6] = test: IL-10 production by human PBMCs from allergic or cancer patients (ELISA); type: cell-based; design: unit not given here; details: 24 hours; LPS 20 μg/ml, HSA and conjugates 100 μg/ml
Text: (§2) Human PBMCs were obtained from: 1) an individual who was allergic to pollen; 2) an individual suffering from lung carcinoma and 3) an individual suffering from colon carcinoma.

Human PBMCs [7] = test: Proliferation of human PBMCs from allergic or cancer patients (3H-thymidine uptake); type: cell-based; details: 3H-thymidine uptake at 90 hours; LPS 20 μg/ml, HSA and conjugates 100 μg/ml
Text: as §2

[8] = naive CBA splenocytes, unfractionated

Question: What does the source list for lacto-N-fucopentaose III [free LNFPIII]?
Answer: reduction in the levels of total IgE as compared to administration of HSA alone (IgE response [1]): approximately 60%; inhibition of the SEA-specific IgE response (in words) (IgE response [2]): marked decrease in the antigen-specific IgE response; inhibition of the total IgE response to SEA (in words) (IgE response [2]): only marginally inhibited; lowering of the total IgE response compared to administration of PLA2 alone (IgE response [3]): approximately 70%; reduction of the PLA2-specific IgE response (IgE response [3]): approximately 40%

Question: phospholipase A2 [PLA2] was tested. Which “PLA2-specific IgE response elicited (in words)” value (IgE response [3]) did it give?
Answer: Its value is “elicits a strong PLA2-specific IgE response”.

Question: And the “total IgE response elicited (in words)” value (IgE response [3])?
Answer: The value was “elicits a strong total IgE response”.

Question: With lipopolysaccharide [LPS] as the compound, how does the “IFN-γ, B cells (B220+)” value ([4]; B220+ cells) read?
Answer: Its value is 0.

Question: What about the “IFN-γ, Non-B (B220−)” value ([4]; B220− cells) of the same compound?
Answer: The value was 321.

Question: And the “IFN-γ, T cells (CD5+)” value ([4]; CD5+ cells)?
Answer: The value was 403.

Question: What about the “IFN-γ, Non-T (CD5−)” value ([4]; CD5− cells) of the same compound?
Answer: Its value is 0.

Question: What about the “IFN-γ, T cells (Thy+)” value ([4]; Thy+ cells) of the same compound?
Answer: Its value is 617.

Question: What about the “IFN-γ, Non-T (Thy−)” value ([4]; Thy− cells) of the same compound?
Answer: Its value is 0.

Question: What about the “IFN-γ, Total Spleen” value [4, 8] of the same compound?
Answer: The value was 47.

Question: And the “IL-10, B cells (B220+)” value ([5]; B220+ cells)?
Answer: Its value is 552.

Question: What about the “IL-10, Non-B (B220−)” value ([5]; B220− cells) of the same compound?
Answer: The value was 320.

Question: And the “IL-10, T cells (CD5+)” value ([5]; CD5+ cells)?
Answer: Its value is 264.

Question: What about the “IL-10, Non-T (CD5−)” value ([5]; CD5− cells) of the same compound?
Answer: The value was 430.

Question: What about the “IL-10, T cells (Thy+)” value ([5]; Thy+ cells) of the same compound?
Answer: The value was 72.

Question: And the “IL-10, Non-T (Thy−)” value ([5]; Thy− cells)?
Answer: Its value is 430.

Question: And the “IL-10, Total Spleen” value [5, 8]?
Answer: Its value is 535.

Question: And the “IL-10 LEVEL 24 HR” value (Granuloma macrophages)?
Answer: The value was 7864 pg/mL.

Question: What about the “IL-10 LEVEL 48 HR” value (Granuloma macrophages) of the same compound?
Answer: The value was 6559 pg/mL.

Question: And the “IL-10 LEVEL 72 HR” value (Granuloma macrophages)?
Answer: The value was 4555 pg/mL.

Question: What about the “IL-10, COLON CARCINOMA” value (Human PBMCs [6]) of the same compound?
Answer: The value was 8221.

Question: What about the “IL-10, LUNG CARCINOMA” value (Human PBMCs [6]) of the same compound?
Answer: Its value is 1400.

Question: What about the “IL-10, POLLEN ALLERGIC” value (Human PBMCs [6]) of the same compound?
Answer: The value was 906.

Question: And the “CPM, COLON CARCINOMA” value (Human PBMCs [7])?
Answer: Its value is 222 CPM.

Question: What about the “CPM, LUNG CARCINOMA” value (Human PBMCs [7]) of the same compound?
Answer: The value was 232 CPM.

Question: And the “CPM, POLLEN ALLERGIC” value (Human PBMCs [7])?
Answer: Its value is 1946 CPM.

Question: With CC(=O)N[C@H]1[C@H](O[C@H]2[C@@H](O)[C@@H](CO)O[C@@H](O[C@H]3[C@H](O)[C@@H](O)C(O)O[C@@H]3CO)[C@@H]2O)O[C@H](CO)[C@@H](O[C@@H]2O[C@H](CO)[C@H](O)[C@H](O)[C@H]2O)[C@@H]1O (mixture of isomers) [free LNT, lacto-N-neotetraose] as the compound, how does the “inhibition of the SEA-specific IgE response (in words)” value (IgE response [2]) read?
Answer: Its value is “significantly less effective than free LNFPIII”.

Question: What about the “inhibition of the total IgE response to SEA (in words)” value (IgE response [2]) of the same compound?
Answer: Its value is “had a greater inhibitory effect”.

Question: And the “lowering of the total IgE response compared to administration of PLA2 alone” value (IgE response [3])?
Answer: The value was “not”.
